Experimental data reported in PubChem BioAssay AID1918935 (Molecular Pharmacology Branch, DTP, NCI, 2023).

Tested on: 324938-238-R-J1-PDC complex spheroid viability
Assay: Anticancer human tumor 324938-238-R-J1-PDC patient-derived bladder carcinoma cell line growth inhibition
Conditions: for IC50: curve of first compound; for viability, T/C: stronger effect = lower value
Method in brief: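 Multicellular complex spheroids of tumor cells with human endothelial cells (HUVEC) and mesenchymal stem cells; the LSD1 inhibitor iadademstat was combined with standard-of-care or investigational agents. Top concentration at or near clinical Cmax, half-log dilutions; final DMSO ≤0.25%.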

[1] = second compound 0.1 µM, first compound 0.00316 µM
[2] = second compound 0.1 µM, first compound 0.01 µM
[3] = second compound 0.1 µM, first compound 0.0316 µM
[4] = second compound 0.1 µM, first compound 0.1 µM
[5] = second compound 0.316 µM, first compound 0.00316 µM
[6] = second compound 0.316 µM, first compound 0.01 µM
[7] = second compound 0.316 µM, first compound 0.0316 µM
[8] = second compound 0.316 µM, first compound 0.1 µM
[9] = second compound 1 µM, first compound 0.00316 µM
[10] = second compound 1 µM, first compound 0.01 µM
[11] = second compound 1 µM, first compound 0.0316 µM
[12] = second compound 1 µM, first compound 0.1 µM
[13] = second compound 3.16 µM, first compound 0.00316 µM
[14] = second compound 3.16 µM, first compound 0.01 µM
[15] = second compound 3.16 µM, first compound 0.0316 µM
[16] = second compound 3.16 µM, first compound 0.1 µM
[17] = second compound 10 µM, first compound 0.00316 µM
[18] = second compound 10 µM, first compound 0.01 µM
[19] = second compound 10 µM, first compound 0.0316 µM
[20] = second compound 10 µM, first compound 0.1 µM
[21] = second compound 0.1 µM, first compound 0.00949 µM
[22] = second compound 0.1 µM, first compound 0.03 µM
[23] = second compound 0.1 µM, first compound 0.0949 µM
[24] = second compound 0.1 µM, first compound 0.3 µM
[25] = second compound 0.1 µM, first compound 0.949 µM
[26] = second compound 0.1 µM, first compound 3 µM
[27] = second compound 0.316 µM, first compound 0.00949 µM
[28] = second compound 0.316 µM, first compound 0.03 µM
[29] = second compound 0.316 µM, first compound 0.0949 µM
[30] = second compound 0.316 µM, first compound 0.3 µM
[31] = second compound 0.316 µM, first compound 0.949 µM
[32] = second compound 0.316 µM, first compound 3 µM
[33] = second compound 1 µM, first compound 0.00949 µM
[34] = second compound 1 µM, first compound 0.03 µM
[35] = second compound 1 µM, first compound 0.0949 µM
[36] = second compound 1 µM, first compound 0.3 µM
[37] = second compound 1 µM, first compound 0.949 µM
[38] = second compound 1 µM, first compound 3 µM
[39] = second compound 3.16 µM, first compound 0.00949 µM
[40] = second compound 3.16 µM, first compound 0.03 µM
[41] = second compound 3.16 µM, first compound 0.0949 µM
[42] = second compound 3.16 µM, first compound 0.3 µM
[43] = second compound 3.16 µM, first compound 0.949 µM
[44] = second compound 3.16 µM, first compound 3 µM
[45] = second compound 10 µM, first compound 0.00949 µM
[46] = second compound 10 µM, first compound 0.03 µM
[47] = second compound 10 µM, first compound 0.0949 µM
[48] = second compound 10 µM, first compound 0.3 µM
[49] = second compound 10 µM, first compound 0.949 µM
[50] = second compound 10 µM, first compound 3 µM
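Also: spheroids also contain HUVEC and human MSCs and agents combined with iadademstat; spheroids exposed to agents for 7 days before readout.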

## COc1cc(Nc2ncc3c(n2)-c2ccc(Cl)cc2C(c2c(F)cccc2OC)=NC3)ccc1C(=O)O + NC1CCC(NC2CC2c2ccccc2)CC1
Second compound 0.1 µM
  IC50: 0.0208 µM
Second compound 0.316 µM
  IC50: 0.0188 µM
Second compound 1 µM
  IC50: 0.0185 µM
Second compound 3.16 µM
  IC50: 0.0154 µM
Second compound 10 µM
  IC50: 0.0207 µM
[1]
  viability, T/C: 75.9%
[2]
  viability, T/C: 67.5%
[3]
  viability, T/C: 39.9%
[4]
  viability, T/C: 23%
Second compound 0.1 µM, first compound 0.316 µM
  viability, T/C: 20.4%
Second compound 0.1 µM, first compound 1 µM
  viability, T/C: 17.9%
[5]
  viability, T/C: 79.8%
[6]
  viability, T/C: 65.7%
[7]
  viability, T/C: 37.4%
[8]
  viability, T/C: 20.5%
Second compound 0.316 µM, first compound 0.316 µM
  viability, T/C: 18.3%
Second compound 0.316 µM, first compound 1 µM
  viability, T/C: 20.9%
[9]
  viability, T/C: 73.3%
[10]
  viability, T/C: 63.5%
[11]
  viability, T/C: 38.5%
[12]
  viability, T/C: 19.6%
Second compound 1 µM, first compound 0.316 µM
  viability, T/C: 21.9%
Second compound 1 µM, first compound 1 µM
  viability, T/C: 19.4%
[13]
  viability, T/C: 74.2%
[14]
  viability, T/C: 56.1%
[15]
  viability, T/C: 39.9%
[16]
  viability, T/C: 24.9%
Second compound 3.16 µM, first compound 0.316 µM
  viability, T/C: 21.7%
Second compound 3.16 µM, first compound 1 µM
  viability, T/C: 21.2%
[17]
  viability, T/C: 70.7%
[18]
  viability, T/C: 65.3%
[19]
  viability, T/C: 40%
[20]
  viability, T/C: 31%
Second compound 10 µM, first compound 0.316 µM
  viability, T/C: 22.7%
Second compound 10 µM, first compound 1 µM
  viability, T/C: 23.1%

## Cn1ncnc1C1c2n[nH]c(=O)c3cc(F)cc(c23)NC1c1ccc(F)cc1 (stereo not given) + NC1CCC(NC2CC2c2ccccc2)CC1
Second compound 0.1 µM
  IC50: > 0.1 µM
Second compound 0.316 µM
  IC50: > 0.1 µM
Second compound 1 µM
  IC50: > 0.1 µM
Second compound 3.16 µM
  IC50: 0.0797 µM
Second compound 10 µM
  IC50: 0.0738 µM
Second compound 0.1 µM, first compound 0.000316 µM
  viability, T/C: 75.7%
Second compound 0.1 µM, first compound 0.001 µM
  viability, T/C: 81.6%
[1]
  viability, T/C: 66.8%
[2]
  viability, T/C: 64.1%
[3]
  viability, T/C: 63.1%
[4]
  viability, T/C: 50.8%
Second compound 0.316 µM, first compound 0.000316 µM
  viability, T/C: 95%
Second compound 0.316 µM, first compound 0.001 µM
  viability, T/C: 86.9%
[5]
  viability, T/C: 73.8%
[6]
  viability, T/C: 66.3%
[7]
  viability, T/C: 65.4%
[8]
  viability, T/C: 55.8%
Second compound 1 µM, first compound 0.000316 µM
  viability, T/C: 70.3%
Second compound 1 µM, first compound 0.001 µM
  viability, T/C: 71.1%
[9]
  viability, T/C: 77.2%
[10]
  viability, T/C: 73%
[11]
  viability, T/C: 59.8%
[12]
  viability, T/C: 52.6%
Second compound 3.16 µM, first compound 0.000316 µM
  viability, T/C: 68.1%
Second compound 3.16 µM, first compound 0.001 µM
  viability, T/C: 77.6%
[13]
  viability, T/C: 74.7%
[14]
  viability, T/C: 66.8%
[15]
  viability, T/C: 58.4%
[16]
  viability, T/C: 48.1%
Second compound 10 µM, first compound 0.000316 µM
  viability, T/C: 66.2%
Second compound 10 µM, first compound 0.001 µM
  viability, T/C: 72.7%
[17]
  viability, T/C: 71.8%
[18]
  viability, T/C: 65%
[19]
  viability, T/C: 54.7%
[20]
  viability, T/C: 48.3%

## NS(=O)(=O)OCC1CC(n2ccc3c(NC4CCc5ccccc54)ncnc32)CC1O (stereo not given) + NC1CCC(NC2CC2c2ccccc2)CC1
Second compound 0.1 µM
  IC50: 0.336 µM
Second compound 0.316 µM
  IC50: 0.336 µM
Second compound 1 µM
  IC50: 0.39 µM
Second compound 3.16 µM
  IC50: 0.309 µM
Second compound 10 µM
  IC50: 0.323 µM
[21]
  viability, T/C: 81.7%
[22]
  viability, T/C: 78.5%
[23]
  viability, T/C: 84.7%
[24]
  viability, T/C: 54.2%
[25]
  viability, T/C: 11.7%
[26]
  viability, T/C: 11.9%
[27]
  viability, T/C: 86.5%
[28]
  viability, T/C: 88.1%
[29]
  viability, T/C: 79.9%
[30]
  viability, T/C: 54.7%
[31]
  viability, T/C: 14.3%
[32]
  viability, T/C: 11.5%
[33]
  viability, T/C: 79.2%
[34]
  viability, T/C: 84.3%
[35]
  viability, T/C: 82.4%
[36]
  viability, T/C: 60.1%
[37]
  viability, T/C: 15.7%
[38]
  viability, T/C: 15.9%
[39]
  viability, T/C: 77.6%
[40]
  viability, T/C: 74.5%
[41]
  viability, T/C: 83.3%
[42]
  viability, T/C: 50.9%
[43]
  viability, T/C: 15.5%
[44]
  viability, T/C: 15.8%
[45]
  viability, T/C: 86.3%
[46]
  viability, T/C: 72.8%
[47]
  viability, T/C: 79.9%
[48]
  viability, T/C: 52.2%
[49]
  viability, T/C: 16.3%
[50]
  viability, T/C: 13.3%

## O=C(C=Cc1cccc(S(=O)(=O)Nc2ccccc2)c1)NO + NC1CCC(NC2CC2c2ccccc2)CC1
Second compound 0.1 µM
  IC50: 0.103 µM
Second compound 0.316 µM
  IC50: 0.101 µM
Second compound 1 µM
  IC50: 0.0417 µM
Second compound 3.16 µM
  IC50: 0.0472 µM
Second compound 10 µM
  IC50: 0.0104 µM
[21]
  viability, T/C: 68%
[22]
  viability, T/C: 59.9%
[23]
  viability, T/C: 51.5%
[24]
  viability, T/C: 37.4%
[25]
  viability, T/C: 26.7%
[26]
  viability, T/C: 7.18%
[27]
  viability, T/C: 61.6%
[28]
  viability, T/C: 63.2%
[29]
  viability, T/C: 50.4%
[30]
  viability, T/C: 34.6%
[31]
  viability, T/C: 25.9%
[32]
  viability, T/C: 5.69%
[33]
  viability, T/C: 64.6%
[34]
  viability, T/C: 49.9%
[35]
  viability, T/C: 40.8%
[36]
  viability, T/C: 32.1%
[37]
  viability, T/C: 26%
[38]
  viability, T/C: 3.87%
[39]
  viability, T/C: 65.3%
[40]
  viability, T/C: 53.5%
[41]
  viability, T/C: 40%
[42]
  viability, T/C: 33.8%
[43]
  viability, T/C: 24.7%
[44]
  viability, T/C: 4.61%
[45]
  viability, T/C: 52.7%
[46]
  viability, T/C: 47.2%
[47]
  viability, T/C: 42.2%
[48]
  viability, T/C: 34.4%
[49]
  viability, T/C: 30.8%
[50]
  viability, T/C: 3.5%
